Our source for the relative viability values is the supplement of paper PMC10307832.

One test relates to NCI-H2405. Put plainly: relative viability (nuclei count vs DMSO), 5 days (fraction); higher = more cells survive. Particulars: first compound 0.2 µM. The method in brief:
(§1)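 A single step with final 0.05% Triton X-100, 1% formaldehyde and 1 ug/ml Hoechst fixed the cells and stained nuclei 5 days after treatment. Lung cancer cell lines in 1536-well plates had been treated by pin tool the day after seeding with one drug alone or a fixed anchor-drug dose plus five library-drug doses (not always all listed) in √10 steps, and nuclei were counted on 4× images. Relative viability is the ratio of nuclei in treated wells to nuclei in vehicle wells, taken as the median of duplicate plates.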
Regarding `COCC1(CO)C(=O)C2CCN1CC2` (stereo unspecified) [PRIMA-1MET] + Nc1nc2[nH]cc(CCc3ccc(C(=O)N[C@@H](CCC(=O)O)C(=O)O)cc3)c2c(=O)[nH]1 [Pemetrexed] (partner 0.2 µM), the relative viability is 1.01.
In turn, `COCC1(CO)C(=O)C2CCN1CC2` (stereo unspecified) [PRIMA-1MET] + CC(=O)Nc1cccc(-n2c(=O)n(C3CC3)c(=O)c3c(Nc4ccc(I)cc4F)n(C)c(=O)c(C)c32)c1 [Trametinib] (partner 0.02 µM) yielded a relative viability of 0.399.
Consider `COCC1(CO)C(=O)C2CCN1CC2` (stereo unspecified) [PRIMA-1MET] + Nc1ncn([C@H]2C[C@H](O)[C@@H](CO)O2)c(=O)n1 [Decitabine] (partner 2 µM), for which the relative viability came to 0.593.

Staying with this test, now noted: first compound 0.6325 µM.
`COCC1(CO)C(=O)C2CCN1CC2` (stereo unspecified) [PRIMA-1MET] + COc1cc2c(Oc3ccc(NC(=O)C4(C(=O)Nc5ccc(F)cc5)CC4)cc3F)ccnc2cc1OCCCN1CCOCC1 [Foretinib] (partner 0.25 µM): the relative viability was found to be 1.03.
Turning to `COCC1(CO)C(=O)C2CCN1CC2` (stereo unspecified) [PRIMA-1MET] + NC(=O)Nc1cc(-c2cccc(F)c2)sc1C(=O)N[C@H]1CCCNC1 [AZD7762] (partner 0.2 µM), the relative viability turned out to be 0.748.
In turn, `COCC1(CO)C(=O)C2CCN1CC2` (stereo unspecified) [PRIMA-1MET] + Nc1nc2[nH]cc(CCc3ccc(C(=O)N[C@@H](CCC(=O)O)C(=O)O)cc3)c2c(=O)[nH]1 [Pemetrexed] (partner 0.2 µM) showed a relative viability of 0.986.
Still for that read-out and setting: next, `COCC1(CO)C(=O)C2CCN1CC2` (stereo unspecified) [PRIMA-1MET] + CC(=O)Nc1cccc(-n2c(=O)n(C3CC3)c(=O)c3c(Nc4ccc(I)cc4F)n(C)c(=O)c(C)c32)c1 [Trametinib] (partner 0.02 µM): 0.598; `COCC1(CO)C(=O)C2CCN1CC2` (stereo unspecified) [PRIMA-1MET] + Nc1ncn([C@H]2C[C@H](O)[C@@H](CO)O2)c(=O)n1 [Decitabine] (partner 2 µM): 0.508.

Still in this test, the particulars now being: first compound 6.325 µM.
`COCC1(CO)C(=O)C2CCN1CC2` (stereo unspecified) [PRIMA-1MET] + COc1cc2c(Oc3ccc(NC(=O)C4(C(=O)Nc5ccc(F)cc5)CC4)cc3F)ccnc2cc1OCCCN1CCOCC1 [Foretinib] (partner 0.25 µM) displayed a relative viability of 1.03.
Molecule `COCC1(CO)C(=O)C2CCN1CC2` (stereo unspecified) [PRIMA-1MET] + NC(=O)Nc1cc(-c2cccc(F)c2)sc1C(=O)N[C@H]1CCCNC1 [AZD7762] (partner 0.2 µM) registered a relative viability of 0.676.
The molecule `COCC1(CO)C(=O)C2CCN1CC2` (stereo unspecified) [PRIMA-1MET] + Nc1nc2[nH]cc(CCc3ccc(C(=O)N[C@@H](CCC(=O)O)C(=O)O)cc3)c2c(=O)[nH]1 [Pemetrexed] (partner 0.2 µM) returned a relative viability of 0.974.
Molecule `COCC1(CO)C(=O)C2CCN1CC2` (stereo unspecified) [PRIMA-1MET] + CC(=O)Nc1cccc(-n2c(=O)n(C3CC3)c(=O)c3c(Nc4ccc(I)cc4F)n(C)c(=O)c(C)c32)c1 [Trametinib] (partner 0.02 µM) gave a relative viability of 0.463.
The same measure, in the same setting: next, `COCC1(CO)C(=O)C2CCN1CC2` (stereo unspecified) [PRIMA-1MET] + Nc1ncn([C@H]2C[C@H](O)[C@@H](CO)O2)c(=O)n1 [Decitabine] (partner 2 µM): 0.645.

The same test, now with this note: first compound 20 µM.
For the molecule `COCC1(CO)C(=O)C2CCN1CC2` (stereo unspecified) [PRIMA-1MET] + COc1cc2c(Oc3ccc(NC(=O)C4(C(=O)Nc5ccc(F)cc5)CC4)cc3F)ccnc2cc1OCCCN1CCOCC1 [Foretinib] (partner 0.25 µM), the relative viability amounted to 0.506.
Regarding `COCC1(CO)C(=O)C2CCN1CC2` (stereo unspecified) [PRIMA-1MET] + NC(=O)Nc1cc(-c2cccc(F)c2)sc1C(=O)N[C@H]1CCCNC1 [AZD7762] (partner 0.2 µM), the relative viability is 0.0739.
On to `COCC1(CO)C(=O)C2CCN1CC2` (stereo unspecified) [PRIMA-1MET] + Nc1nc2[nH]cc(CCc3ccc(C(=O)N[C@@H](CCC(=O)O)C(=O)O)cc3)c2c(=O)[nH]1 [Pemetrexed] (partner 0.2 µM), for which the relative viability came out at 0.0844.
As for `COCC1(CO)C(=O)C2CCN1CC2` (stereo unspecified) [PRIMA-1MET] + CC(=O)Nc1cccc(-n2c(=O)n(C3CC3)c(=O)c3c(Nc4ccc(I)cc4F)n(C)c(=O)c(C)c32)c1 [Trametinib] (partner 0.02 µM), the relative viability is 0.0947.
Molecule `COCC1(CO)C(=O)C2CCN1CC2` (stereo unspecified) [PRIMA-1MET] + Nc1ncn([C@H]2C[C@H](O)[C@@H](CO)O2)c(=O)n1 [Decitabine] (partner 2 µM) showed a relative viability of 0.296.

A further test has as its system NCI-H2085. Described as above. Particulars: first compound 0.2 µM. A digest of the protocol:
as §1
`COCC1(CO)C(=O)C2CCN1CC2` (stereo unspecified) [PRIMA-1MET] + COc1cc2c(Oc3ccc(NC(=O)C4(C(=O)Nc5ccc(F)cc5)CC4)cc3F)ccnc2cc1OCCCN1CCOCC1 [Foretinib] (partner 0.25 µM) had a relative viability of 1.01.
Same read-out and setting: next, `COCC1(CO)C(=O)C2CCN1CC2` (stereo unspecified) [PRIMA-1MET] + NC(=O)Nc1cc(-c2cccc(F)c2)sc1C(=O)N[C@H]1CCCNC1 [AZD7762] (partner 0.2 µM): 1.09.
On the same count and under the same terms, next, `COCC1(CO)C(=O)C2CCN1CC2` (stereo unspecified) [PRIMA-1MET] + Nc1nc2[nH]cc(CCc3ccc(C(=O)N[C@@H](CCC(=O)O)C(=O)O)cc3)c2c(=O)[nH]1 [Pemetrexed] (partner 0.2 µM): 0.936; `COCC1(CO)C(=O)C2CCN1CC2` (stereo unspecified) [PRIMA-1MET] + CC(=O)Nc1cccc(-n2c(=O)n(C3CC3)c(=O)c3c(Nc4ccc(I)cc4F)n(C)c(=O)c(C)c32)c1 [Trametinib] (partner 0.02 µM): 0.618; `COCC1(CO)C(=O)C2CCN1CC2` (stereo unspecified) [PRIMA-1MET] + Nc1ncn([C@H]2C[C@H](O)[C@@H](CO)O2)c(=O)n1 [Decitabine] (partner 2 µM): 0.59.

Staying with this test, now noted: first compound 0.6325 µM.
The molecule `COCC1(CO)C(=O)C2CCN1CC2` (stereo unspecified) [PRIMA-1MET] + COc1cc2c(Oc3ccc(NC(=O)C4(C(=O)Nc5ccc(F)cc5)CC4)cc3F)ccnc2cc1OCCCN1CCOCC1 [Foretinib] (partner 0.25 µM) returned a relative viability of 1.01.
Same read-out and setting: next, `COCC1(CO)C(=O)C2CCN1CC2` (stereo unspecified) [PRIMA-1MET] + NC(=O)Nc1cc(-c2cccc(F)c2)sc1C(=O)N[C@H]1CCCNC1 [AZD7762] (partner 0.2 µM): 1.1; `COCC1(CO)C(=O)C2CCN1CC2` (stereo unspecified) [PRIMA-1MET] + Nc1nc2[nH]cc(CCc3ccc(C(=O)N[C@@H](CCC(=O)O)C(=O)O)cc3)c2c(=O)[nH]1 [Pemetrexed] (partner 0.2 µM): 0.925; `COCC1(CO)C(=O)C2CCN1CC2` (stereo unspecified) [PRIMA-1MET] + CC(=O)Nc1cccc(-n2c(=O)n(C3CC3)c(=O)c3c(Nc4ccc(I)cc4F)n(C)c(=O)c(C)c32)c1 [Trametinib] (partner 0.02 µM): 0.61.
Still for that read-out and setting: next, `COCC1(CO)C(=O)C2CCN1CC2` (stereo unspecified) [PRIMA-1MET] + Nc1ncn([C@H]2C[C@H](O)[C@@H](CO)O2)c(=O)n1 [Decitabine] (partner 2 µM): 0.459.

Staying with this test, now noted: first compound 2 µM.
Molecule `COCC1(CO)C(=O)C2CCN1CC2` (stereo unspecified) [PRIMA-1MET] + COc1cc2c(Oc3ccc(NC(=O)C4(C(=O)Nc5ccc(F)cc5)CC4)cc3F)ccnc2cc1OCCCN1CCOCC1 [Foretinib] (partner 0.25 µM) yielded a relative viability of 0.772.
On to `COCC1(CO)C(=O)C2CCN1CC2` (stereo unspecified) [PRIMA-1MET] + NC(=O)Nc1cc(-c2cccc(F)c2)sc1C(=O)N[C@H]1CCCNC1 [AZD7762] (partner 0.2 µM), for which the relative viability is 0.588.
In turn, `COCC1(CO)C(=O)C2CCN1CC2` (stereo unspecified) [PRIMA-1MET] + Nc1nc2[nH]cc(CCc3ccc(C(=O)N[C@@H](CCC(=O)O)C(=O)O)cc3)c2c(=O)[nH]1 [Pemetrexed] (partner 0.2 µM) returned a relative viability of 0.549.
